Measurements as given in patent US20260355171A1, “INHIBITORS AND USES THEREFOR” (priority 2022, published 2026).
Read-outs that look alike come from different tables or passages of the source.

What was measured:
[1] = tested on: primary neurons expressing SARS-CoV-2 NSP5 (AAV9-NSP5-V5); assay: Effect on neurons in the presence of NSP5 (AAV9-NSP5-V5, immunofluorescence); format: cell-based, mouse; conditions: 0.4, 2, 10 or 50 μM, two days
primary neurons [2] = assay: Neuronal cell death in the presence of H2O2; format: cell-based, mouse; conditions: 1 or 10 μM compound, 100 μM H2O2
Procedure: Primary neurons were treated with 0.4, 1, 2, 10 or 50 μM of compound 2 or compound 22 (prepared according to Example 2). NSP5 was added to primary neurons at DIV11, and compound 2 or 22 was added 48 hours later. Cells were treated with propidium iodide 48 hours after compound addition. Cells were washed with PBS and fixed with 4% PFA. Cells were then washed and stained with DAPI. Images of cells were taken with ZEISS Axioscan 7 microscope slide scanner. Cell death was determined by Image J analysis, counting the death cell (red, PI)) vs all cells (blue, DAPI).
One hour after compound addition (1 or 10 μM of compound 2 or compound 22) neurons were treated with a cytotoxic agent (100 μM N-methyl-D-aspartate (NMDA), 100 μM H2O2 or 5 μM staurosporine). One hour after treatment with the cytotoxic agent, the media was replaced with fresh media and the neurons were incubated for 24 hours. A final concentration of 1 μM propidium iodide (PI) was added into the well and incubated for 5 mins. Cells were washed with phosphate-buffered saline (PBS) and then fixed with 4% PFA. Cells were then washed and stained with DAPI, and cell death determined as described above.

primary neurons [3] = assay: Effect of compounds on neuronal cell death caused by NSP5 (Example 6); format: cell-based, mouse; conditions: 10 μM, 48 hours
[4] = Mouse pharmacokinetics, IV administration; format: in vivo
Procedure: (§1) Pharmacokinetic parameters of compound 22 (prepared in accordance with Example 2) were determined following intravenous (IV, 3 mg/kg) and intraperitoneal (IP, 10 mg/kg) administration to male C57BL/6 mice.
(§2) IV and IP formulations were prepared separately by dissolving solid compound 22 in dimethyl sulfoxide (DMSO) prior to addition of 50 mM phosphate buffered saline (pH 6.5) using vortexing and sonication to produce a colourless solution, and giving a final DMSO concentration of 5% (v/v) for each formulation. The IV formulation was filtered through a 0.22 μm syringe filter prior to dosing, whereas the IP formulation was not filtered.
(§3) The pharmacokinetics of compound 22 was studied in non-fasted male C57BL/6 mice weighing 21.1-26.5 g. Mice had access to food and water ad libitum throughout the pre- and post-dose sampling period.
(§4) Compound 22 was dosed to mice by bolus injection into the lateral tail vein (2 mL/kg) for IV administration and by injection into the IP cavity (5 mL/kg) for IP administration. After dosing, blood samples were collected up to 24 h (n=3 mice per time point) with a maximum of three samples from each mouse via submandibular bleed (approximately 120 μL). No urine samples were collected as mice were housed in bedded cages. Blood was collected into polypropylene Eppendorf tubes containing heparin as anticoagulant. Once collected, blood samples were centrifuged immediately, supernatant plasma was removed, and stored at −80 °C until analysis by liquid chromatography-mass spectrometry (LC-MS). A summary of the bioanalytical method is included in Table 5.
(§5) Concentrations of test compound in plasma and tissue samples were determined using a liquid chromatography with tandem mass spectrometry (LCMS/MS) method validated for linearity, accuracy, precision, matrix factor and recovery (refer to Table 5).
(§6) Plasma: The plasma calibration curve was prepared by spiking aliquots of blank mouse plasma (25 μL) with test compound standard solutions (5 μL) and internal standard solution (5 μL of diazepam, 5 μg/mL in 50% acetonitrile in water). Test plasma samples (25 μL) were thawed, mixed and then spiked with internal standard solution (5 μL). Plasma protein precipitation was performed by addition of acetonitrile (3-fold volume ratio) and thorough vortex mixing. Samples were centrifuged (RCF=9391×g) for 3 minutes and the supernatant (100 μL) was collected for analysis. The analysis of blood/plasma (B/P) partitioning samples was conducted similarly as for the plasma samples, using protein precipitation with acetonitrile as described above.
(§7) The plasma concentration versus time profile was defined by the average plasma concentration at each sample time, and PK parameters were calculated using non-compartmental methods (PKSolver Version 2.0). Standard calculations for each pharmacokinetic parameter are listed below.

[5] = Mouse pharmacokinetics, IP administration; format: in vivo
Procedure: as §1, §2, §3, §4, §5, §6, §7

[6] = Adverse reactions in pharmacokinetic study; format: in vivo, mouse; conditions: 24-hour sampling period, IV 3 mg/kg and IP 10 mg/kg
Procedure: as §3, §4

[7] = tested on: PHP.B hSyn-NSP5-V5 adeno-associated virus; assay: Rota-rod motor testing; format: in vivo, mouse; conditions: 10 mg/kg daily, three-day testing, 15-17 days post AAV, vs Paxlovid
Procedure: (§8) In vivo testing was performed on 5-month-old female C57BL/6 wildtype mice injected intravenously with PHP.B hSyn-NSP5-V5 adeno-associated virus (AAV) and treated daily with compound 22 (10 mg/kg), Paxlovid (nirmatrelvir/ritonavir) (10 mg/kg nirmatrelvir: 3.33 mg/kg ritonavir) or a vehicle control (n=10 per group).
(§9) Motor testing was performed on the Rota-rod five times daily over a three-day testing period as previously described (refer to Ke et al. (2015) Acta Neuropathol, 130: 661-678). Motor coordination was also assessed using the hanging wire test at 14 and 22 days post injection with the AAV, which assessed the time hanging upside down on a wire grid (refer to Chan et al. (2020) Am J Path, 190(8): 1713-1722). Anxiety, disinhibition and exploratory behaviour was assessed using the elevated plus maze (EPM) test as previously described (refer to Ke et al. (2015) Acta Neuropathol, 130: 661-678).

[8] = tested on: PHP.B hSyn-NSP5-V5 adeno-associated virus; assay: Hanging wire test; format: in vivo, mouse; conditions: 10 mg/kg daily, vs Paxlovid and vehicle
Procedure: as §8, §9

[9] = mouse, plasma, IP 10 mg/kg, male C57BL/6 mice

## NC(=O)C1CCN(c2ncccc2CNCc2cccc3[nH]ccc23)CC1 [Compound 22]
[1]
  Prevention of NSP5-induced neuronal death: prevented NSP5-induced neuronal death in a dose-dependent manner
Primary neurons [2]
  Protection from H2O2-induced neurotoxicity: did not protect
Primary neurons [3]
  Reduction of neuronal cell death caused by NSP5: greatest activity
[4]; IV 3 mg/kg
  Apparent blood volume of distribution: high
  Blood clearance: moderate
  Duration of measurable plasma concentrations: 24 h
[4]; IV 3 mg/kg, mouse
  In vivo blood clearance relative to nominal hepatic blood flow: ~ 50%
[4]; IV 3 mg/kg, assuming predominantly hepatic clearance
  In vivo hepatic extraction ratio: moderate
[4]; mouse, blood, IV 3 mg/kg, extrapolation to infinity, approximation only, read-out: Blood CL
  clearance: 60.6 mL/min/kg
[4]; mouse, blood, IV 3 mg/kg, extrapolation to infinity, approximation only, read-out: Blood VSS
  Vd: 16.6 L/kg
[4]; mouse, plasma, iv, 3 mg/kg, male C57BL/6 mice, terminal phase not clearly defined, approximation only, read-out: Apparent t1/2 (converted)
  half-life: ~840 min
[4]; mouse, plasma, IV 3 mg/kg, male C57BL/6 mice, read-out: Plasma AUC0-last
  AUC(0-t): 1.51 µM·h
[4]; mouse, plasma, IV 3 mg/kg, extrapolation to infinity, approximation only, read-out: Plasma AUC0-inf
  AUC(0-inf): 1.62 µM·h
[4]; mouse, plasma, IV 3 mg/kg, extrapolation to infinity, approximation only, read-out: Plasma CL
  clearance: 84.9 mL/min/kg
[4]; mouse, plasma, IV 3 mg/kg, extrapolation to infinity, approximation only, read-out: Plasma VSS
  Vd: 23.3 L/kg
[5]; IP 10 mg/kg, truncated AUC0-7.5 h, likely slight underestimation, 10 mg/kg, 450 min
  BA (apparent bioavailability): 47.3%
[5]; mouse, plasma, ip, 10 mg/kg, truncated AUC0-7.5 h, likely slight underestimation, read-out: BA (apparent bioavailability)
  bioavailability at 7.5 h: 47%
[5]; [9]
  Cmax: 4.25 µM
  Tmax: 15 min
[5]; mouse, plasma, IP 10 mg/kg, male C57BL/6 mice, read-out: Plasma AUC0-last
  AUC(0-t): 2.56 µM·h
[6]
  Adverse reactions or compound-related side effects: no adverse reactions or compound-related side effects observed
[7]
  Rota-rod average time of five daily trials: performed significantly better than Paxlovid-treated mice
  Rota-rod maximum time of five daily trials: performed significantly better than Paxlovid-treated mice
[8]; 14 days post AAV
  Hanging wire test, mice reaching maximum time: more compound 22-treated mice reaching the maximum time
[8]; 22 days post AAV
  Hanging wire test, mice reaching maximum time: more compound 22-treated mice reaching the maximum time
